How the values were obtained:
[1] = test system: RPMI-8226 target cells; experiment: Serial restimulation on BCMA-conjugated beads, cytolytic activity against RPMI-8226 at each reset; format: cell-based, human; settings: preincubated with 5 μM lenalidomide for 7 days or 14 days
Description: Anti-BCMA CAR T cell compositions were generated from three different donors, each containing T cells expressing the same anti-BCMA CAR, thawed, and were incubated for seven days with beads (diameter about 4.5 μm) at a 1:1 ratio of beads to cells from a 50 μg/mL BCMA-conjugated bead composition generated as described in Example 9.
Cells from each condition were plated in triplicate. The % cell killing compared to vehicle only control (set at 100%) was determined.

[2] = test system: anti-CD19 CAR+ T cells; experiment: Serial restimulation of anti-CD19 CAR+ T cells with K562-CD19 cells: expansion; format: cell-based, human; settings: 1 μM lenalidomide, 4 rounds of stimulation, 12 days, two donors
Description: The ability of anti-CD19 CAR+ T cells to expand ex vivo following repeated stimulations was assessed using methods substantially as described in Example 2. […] For each donor, cells were harvested every 3-5 days from each experimental condition in the wells and counted, and restimulated with new target cells using the same culture conditions after resetting cell number to initial seeding density for each round. A total of 4 rounds of stimulation during a 12 day culture period were carried out. For each round of stimulation, the total number of cells was determined, and the results were depicted as the fold-change of cell number after stimulation (FIG. 17A) or number of doublings compared to initial number (FIG. 17B).

[3] = test system: anti-BCMA CAR T cells; experiment: Cytokine production of anti-BCMA CAR T cells on low, medium, high BCMA bead stimulation; format: cell-based, human
Description: In another study, recombinant human BCMA-conjugated beads were used to stimulate CAR T cells at various concentrations to titrate the magnitude of stimulation, either low (5 μg/mL), medium (50 μg/mL), and high (200 μg/mL) stimulation.

[4] = test system: anti-BCMA CAR+ T cells; experiment: 3-D reconstructed bone marrow (rBone) myeloma model with RPMI-8226; format: cell-based, human; settings: 1.0 μM lenalidomide
Text: To assess cell function in the context of a three-dimensional (3-D) human BCMA-expressing tissue microenvironment, a reconstructed bone marrow (rBone™) (z[…], San Jose, Calif.) was embedded with BCMA-expressing RPMI-8226.
After 2 or 7 days, cells were isolated and assessed by flow cytometry for surface expression of CD3, CD25, CD4, and CD8.

[5] = test system: anti-BCMA CAR T cells; experiment: Cytokine production on BCMA/PD-L1 conjugated beads; format: cell-based, human; settings: 1 μM lenalidomide, 24 hours
Description: In another study, to explore whether the lenalidomide-induced potentiation of CAR T activation and cytokine production could override PD-L1-mediated inhibition, cells were cultured in the presence of BCMA beads generated as described in Example 9, with or without additional conjugation of human recombinant PD-L1-Fc. […] Cytokine production was measured in the supernatant.

[6] = test system: anti-BCMA CAR+ T cells; experiment: Serial restimulation of anti-BCMA CAR+ T cells with irradiated MM1.S cells: expansion, cytokines, CD25; format: cell-based, human
Description: Anti-BCMA CAR+ T cells generated as described above were plated in triplicate at 1×10^5 cells/well on 96-well plates.
Every 3-4 days (start of each new round), CAR T cells were counted. […] 8 rounds of stimulation were carried out during a 31 day culture period. For some rounds, at re-plating, cells were assessed for phenotypic markers via flow cytometry.
Culture conditions were reset every 3-4 days. Replating was maintained for 28 days or until the cell count was <50,000 cells. Experiments were performed in triplicate in 3 donors.

[7] = test system: anti-CD19 CAR-expressing T cells; experiment: T cell surface markers of anti-CD19 CAR-expressing T cells incubated with K562.CD19; format: cell-based, human; settings: all donors and E:T ratios
[8] = test system: anti-CD19 CAR-expressing T cells; experiment: Serial stimulation with K562.CD19: expansion (cell doublings); format: cell-based, human; settings: for cell doublings: 1000 nM lenalidomide
Text: Every 3-4 days (start of each new round), the cells were counted.

[9] = test system: OPM2-ffluc tumor; experiment: OPM-2 human multiple myeloma orthotopic xenograft mouse model, Study 1; format: in vivo
Description: Mice (NOD.Cg-Prkdc^scidIL-2rg^tm1Wjl/SzJ mice (NSG; Jackson Labs)) were injected intravenously (i.v.) with 2×10^6 OPM2 (multiple myeloma) cells transfected with firefly luciferase (OPM2-ffluc). Tumor engraftment was allowed to occur for 13 days prior to staging (14 days before CAR-T cell administration) and verified using bioluminescence imaging.
Table E1 summarizes the dosing regimens.
Tumor burden in animals among the various groups was monitored by bioluminescence imaging up to day 39 post-CAR+ T cell dosing. For bioluminescence imaging, mice received intraperitoneal (i.p.) injections of luciferin substrate (CaliperLife Sciences, Hopkinton, Mass.) resuspended in PBS (15 μg/g body weight). The total flux (photon/s) was determined at each time point.
Table E2 lists median survival (ms) (as assessed at day 56 post-CAR+ T cell administration) and number of mice in group surviving until day 56-post-CAR+ T cell administration, for each animal group assessed in this study.

[10] = medium stimulation (50 μg BCMA beads), 24 hours, 1 μM lenalidomide
[11] = 0.1 μM lenalidomide, repeated stimulation

SMILES: Nc1cccc2c1CN(C1CCC(=O)NC1=O)C2=O (stereo not drawn) [lenalidomide, 3-(4-amino-1-oxo-1,3-dihydro-2H-isoindol-2-yl)piperidine-2,6-dione]
- cytolytic activity [1]: exhibited greater cytolytic activity
- cell expansion of anti-CD19 CAR+ T cells [2]: no change or only a minor effect in cell expansion
- percentage of IFN-γ+ and TNF-α+ intracellular staining ([3]; 0.1 or 1.0 μM lenalidomide, all stimulation levels, CD4+ and CD8+): increased the percentage of IFN-γ^+ and TNF-α^+ intracellular staining
- percentage of IL-2+ CAR+ T cells ([3]; 5-μg stimulation): increasing the percentage of IL-2^+ CAR^+ T cells
- percentage of IL-2+ CAR+ T cells ([3]; 50-μg and 200-μg stimulation): decreasing the percentage of IL-2^+ CAR^+ T cells
- CAR T cytokine production ([3]; absence of stimulation): had no effect on CAR T cytokine production
- increase in IL-2 concentration compared with vehicle control [3, 10]: 200%
- increase in TNF-α concentration compared with vehicle control [3, 10]: 200%
- IFN-γ concentration compared with vehicle control ([3]; medium stimulation, 24 hours): donor-dependent increases
- CD25+ expression in CD4+ and CD8+ T cell populations [4]: increase in CD25+ expression
- total number of CD3+ cells ([4]; day 7): increase in total number of CD3+ cells
- secreted cytokine levels (IFN-γ, IL-2, TNF-α) [5]: potentiated secreted cytokine levels
- projected cell counts ([6]; 0.1 μM lenalidomide, 3 donors, over 28 days): increased projected cell counts
- CAR T CD25 expression (MFI) [6, 11]: significant increase in CAR T CD25 expression
- IL-2, IFN-γ, and TNF-α production in the media [6, 11]: significant increase
- CAR-T expansion ([6]; 0.1 μM lenalidomide, six donors): an increase or no change in CAR-T expansion
- expansion of anti-BCMA CAR T cells ([6]; 0.01-10 μM lenalidomide, by day 14, vs no lenalidomide): increased expansion of anti-BCMA CAR T cells
- expansion of cells expressing two different human anti-BCMA CARs ([6]; beginning between day 21 and day 28): increase expansion in both cell populations
- expression of CD27 [7]: downregulated in a concentration-dependent manner
- expression of CD45RO [7]: increased
- CAR+ T cell counts ([8]; 100 nM lenalidomide): increased CAR+ T cell counts for two out of three donors
- cell doublings ([8]; 2.5:1 E:T ratio, later rounds): lower cell doublings were only observed in two of the donors
- cell doublings ([8]; 10:1 E:T ratio, after 3-4 rounds, all donors): decreased cell doublings
- survival effects ([9]; added to anti-BCMA CAR+ T cells, high and low doses, day −1 or delayed dosing): improved survival effects
- # animals surviving day 56 post-CART ([9]; lenalidomide 10 mg/kg i.p. daily from day −1 (A) or day 14 (B), cell dose hi 1.00E+06, low 5.00E+05): 0/8
- Median Survival (assessed at day 6) ([9]; lenalidomide 10 mg/kg i.p. daily from day −1 (A) or day 14 (B), cell dose hi 1.00E+06, low 5.00E+05, listed as lenalidomide (A)): 28
- Median Survival (assessed at day 6) ([9]; lenalidomide 10 mg/kg i.p. daily from day −1 (A) or day 14 (B), cell dose hi 1.00E+06, low 5.00E+05, listed as lenalidomide (B)): 25
- tumor growth or tumor burden ([9]; lenalidomide alone): not observed to reduce tumor growth or tumor burden
- tumor growth and tumor burden ([9]; lenalidomide from day 14 added to CAR-T cells, both doses): trend towards slower tumor growth and reduced tumor burden
- tumor growth and tumor burden (bioluminescence) ([9]; lenalidomide from day −1 added to CAR+ T cells, both doses): slower tumor growth and reduced tumor burden

Reference: patent publication US20200078404A1, “COMBINATION OF A CELL THERAPY AND AN IMMUNOMODULATORY COMPOUND” (Juno Therapeutics, Inc., priority 2017, published 2020)
